In data set [1] the test system is rat hepatocyte-Kupffer cell co-culture. The following applies: ref Tukov et al., 2006; cited from earlier work.
Data set [2] has as its system primary human hepatocytes. The experiment in a line: Quantitative sub-lethal hepatotoxicity imaging assays. The data set is classed as cell-based. Conditions: absence of cytokines, 24 or 48 hours.
Data set [3] concerns primary human hepatocytes. The data set is classed as cell-based. The following applies: no cytokines, 24 hr, doses less than each drug's own 100*Cmax.
Data set [4] relates to primary human hepatocytes. In kind it is cell-based. Conditions: 24 hours post-treatment.

Entries after “also recorded” stand apart in the source; their conditions may differ.

These results are taken from PMC3108859 (Toxicology and applied pharmacology, 2009).

Turning to `CN(C)CCCN1c2ccccc2Sc2ccc(Cl)cc21` [chlorpromazine], in data set [1], the “synergistic induction of hepatocellular death following LPS treatment” value is recorded as “synergistic induction of hepatocellular death following LPS treatment”.

In the case of `CC[C@H]1OC(=O)[C@H](C)[C@@H](O[C@H]2C[C@@](C)(OC)[C@@H](O)[C@H](C)O2)[C@H](C)[C@@H](O[C@@H]2O[C@H](C)C[C@H](N(C)C)[C@H]2O)[C@](C)(OC)C[C@@H](C)C(=O)[C@H](C)[C@@H](O)[C@]1(C)O` [clarithromycin], the “drug-induced sub-lethal hepatocyte injuries (lipid content, ROS, MtMP, GSH depletion)” value in data set [2] is given as “numerous sub-lethal hepatotoxicities”.

Turning to `CCc1nn(CCCN2CCN(c3cccc(Cl)c3)CC2)c(=O)n1CCOc1ccccc1` [nefazodone], the “drug-induced sub-lethal hepatocyte injuries (lipid content, ROS, MtMP, GSH depletion)” value in data set [2] is given as “numerous sub-lethal hepatotoxicities”.

On to `C=C[C@H]1C[N@@]2CC[C@H]1C[C@H]2[C@H](O)c1ccnc2ccc(OC)cc12` [quinine], for which the “drug-only hepatotoxicity (greater than two-fold increase in LDH release)” value in data set [3] was “induced significant drug-only hepatotoxicity”.

For the compound `CC[C@H]1OC(=O)[C@H](C)C(=O)[C@H](C)[C@@H](O[C@@H]2O[C@H](C)C[C@H](N(C)C)[C@H]2O)[C@](C)(OC)C[C@@H](C)C(=O)[C@H](C)[C@H]2N(CCCCn3cnc(-c4cccnc4)c3)C(=O)O[C@]12C` [telithromycin], the “drug-induced sub-lethal hepatocyte injuries (lipid content, ROS, MtMP, GSH depletion)” value in data set [2] is “only sub-lethal injury induced by both telithromycin and trovafloxacin that was statistically significant was MtMP depletion; also recorded: induced only one type of sub-lethal injury, mitochondrial membrane potential depletion”. The “cytokine synergy effects by factorial analysis of caspase 3/7 activity” value in data set [4] was “evident, in decreasing magnitude, for LPS and IL-1α but not other treatment variables”.

Regarding `N[C@@H]1[C@H]2CN(c3nc4c(cc3F)c(=O)c(C(=O)O)cn4-c3ccc(F)cc3F)C[C@@H]12` [trovafloxacin], the “drug-induced sub-lethal hepatocyte injuries (lipid content, ROS, MtMP, GSH depletion)” value in data set [2] is “only sub-lethal injury induced by both telithromycin and trovafloxacin that was statistically significant was MtMP depletion; also recorded: induced only one type of sub-lethal injury, mitochondrial membrane potential depletion”. The “cytokine synergy effects by factorial analysis of caspase 3/7 activity” value in data set [4] was “evident, in decreasing magnitude, for LPS and IL-1α but not other treatment variables”.
